Measured values reported in US20260042753A1 (Merck Patent GmbH, priority 2019, published 2026).
Read-outs that look alike come from different tables or passages of the source.

How the values were obtained:
[1] = biological target: mutant cKIT (560-576 and V654A) in GIST430/654 cell line (Homo sapiens (Human), UniProt P10721, DEL560-576/V654A); assay: Cellular testing of cKIT mutant inhibitors: phospho-Y307-cKIT Luminex assay in GIST430/654 cells; type: cell-based; conditions: read-out: GIST 430/654 IC50
Experimental: Assay Principle for Cellular Testing of cKIT Mutant Inhibitors
The GIST430/654 cell line expressing mutated constitutively active cKIT receptor tyrosine kinase ([…]560-576 and V654A) was employed for assessing cellular potency of compounds. Cellular activity of mutant cKIT was determined by the degree of cKIT autophosphorylation at tyrosine 307 using a Luminex-based bead assay. GIST430/654 cells were plated with 25,000 cells per well of a 96-well plate in 100 μl medium (85% IMDM/15% FCS supplemented with 100 nM Imatinib). At the following day compounds were added in a serial dilution for 45 min. Then, cells were lysed with 90 μl lysis buffer (20 mM Hepes pH 7.5, 200 mM NaCl, 1.5 mM MgCl2×6H2O, 0.4 mM EDTA, 1% Triton-X-100, 1% Phosphatase-Inhibitor II, 20 mM D-Glycerolphosphat, 0.1% Protease-Inhibitor Cocktail III, 0.01% Benzonase) und lysates were cleared by centrifugation through a 96-well filter plate (0.65 μm). Samples were incubated with Luminex-beads which were coupled with an anti-total cKIT antibody overnight at 4° C. under gentle agitation. For detection of phospho-Y307-cKIT a phosphospecific antibody and a species-specific PE-labelled secondary antibody were added. The amount of phospho-Y307-cKIT was determined in a Luminex 200 instrument measuring 100 events per well within 60 seconds.
Counts from samples treated with compounds were calculated as percent of control from solvent treated (0.3% DMSO) samples. Dose-response curves were fitted and IC50 values were determined using Genedata Screener software.

c-Kit(V654A) = c-Kit(V654A) (Homo sapiens, UniProt P10721, V654A); assay: c-Kit(V654A) assay; type: biochemical
Experimental: c-Kit(V654A) (N-terminal GST-tagged, recombinant human c-Kit, amino acids 544-end containing the V654A mutation) is incubated with 8 mM MOPS pH 7.0, 0.2 mM EDTA, 250 μM GGMEDIYEFMGGKKK, 10 mM MgAcetate and [gamma-33P-ATP](specific activity approx. 500 cpm/pmol, concentration 200 μM). The reaction is initiated by the addition of the MgATP mix. After incubation for 40 minutes at room temperature, the reaction is stopped by the addition of 3% phosphoric acid solution. 10 μL of the reaction is then spotted onto a P30 filtermat and washed three times for 5 minutes in 75 mM phosphoric acid and once in methanol prior to drying and scintillation counting.

[2] = Table 1, cKIT autophosphorylation, compounds 45 min
[3] = Table 2, corresponding triazole derivatives

Chain of mutant cKIT (560-576 and V654A) in GIST430/654 cell line (P10721 other isoform, or with tags, fused parts or gaps V654A/del 1-25/del 560-576 limits assumed): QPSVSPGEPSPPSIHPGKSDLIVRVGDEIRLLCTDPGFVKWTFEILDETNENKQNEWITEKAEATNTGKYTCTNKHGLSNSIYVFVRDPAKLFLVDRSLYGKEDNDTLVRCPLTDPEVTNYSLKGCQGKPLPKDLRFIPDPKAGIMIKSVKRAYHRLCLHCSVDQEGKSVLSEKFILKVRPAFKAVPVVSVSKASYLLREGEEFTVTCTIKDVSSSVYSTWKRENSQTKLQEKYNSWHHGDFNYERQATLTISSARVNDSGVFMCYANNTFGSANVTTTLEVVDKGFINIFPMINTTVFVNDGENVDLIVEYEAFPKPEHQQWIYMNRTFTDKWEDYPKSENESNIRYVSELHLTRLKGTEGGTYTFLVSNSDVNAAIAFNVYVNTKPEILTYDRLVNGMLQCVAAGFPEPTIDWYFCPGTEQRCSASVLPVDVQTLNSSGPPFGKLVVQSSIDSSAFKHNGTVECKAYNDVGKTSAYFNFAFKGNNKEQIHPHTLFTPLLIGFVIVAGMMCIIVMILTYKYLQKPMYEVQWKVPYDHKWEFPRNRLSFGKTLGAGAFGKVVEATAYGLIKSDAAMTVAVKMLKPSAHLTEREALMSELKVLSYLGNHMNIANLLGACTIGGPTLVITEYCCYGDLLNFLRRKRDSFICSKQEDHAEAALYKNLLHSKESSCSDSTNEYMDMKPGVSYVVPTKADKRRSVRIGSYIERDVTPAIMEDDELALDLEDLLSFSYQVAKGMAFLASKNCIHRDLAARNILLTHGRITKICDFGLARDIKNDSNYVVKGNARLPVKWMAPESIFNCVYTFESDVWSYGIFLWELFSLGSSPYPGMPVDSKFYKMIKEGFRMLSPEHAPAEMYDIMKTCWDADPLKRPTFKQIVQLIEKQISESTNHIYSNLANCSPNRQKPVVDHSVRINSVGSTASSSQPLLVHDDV

Compound | IC50 [1, 2] [nM] | IC50 (c-Kit(V654A); Table 1, 200 μM ATP) [nM] | IC50 [1, 3] [nM] | IC50 (c-Kit(V654A); [3]) [nM]
COCCOc1cc2[nH]nc(-c3cc(-c4nc(C(=O)N5CC(F)C5)cs4)no3)c2cc1F [A87, 5-fluoro-3-{3-[4-(3-fluoroazetidine-1-carbonyl)-1,3-thiazol-2-yl]-1,2-oxazol-5-yl}-6-(2-methoxyethoxy)-1H-indazole] | 590 | 38 |  | 
COCCOc1cc2[nH]nc(-c3cc(-c4ccc(Oc5ccccn5)cc4)no3)c2cc1F [A143, 5-fluoro-6-(2-methoxyethoxy)-3-{3-[4-(pyridin-2-yloxy)phenyl]-1,2-oxazol-5-yl}-1H-indazole] | 860 | 18 |  | 
COCCOc1cc2[nH]nc(-c3cc(-c4ccc(C(=O)N5CCC6(CCOC6)C5)cc4)no3)c2cc1F (stereo not shown) [A157, 7-(4-{5-[5-fluoro-6-(2-methoxyethoxy)-1H-indazol-3-yl]-1,2-oxazol-3-yl}benzoyl)-2-oxa-7-azaspiro[4.4]nonane] | 23 | 0.44 |  | 
COCCOc1cc2[nH]nc(-c3cc(-c4ccc(C(=O)N5C[C@H]6COC[C@H]6C5)cc4)no3)c2cc1F [A202, 3-(3-{4-[(cis)-hexahydro-1H-furo[3,4-c]pyrrole-5-carbonyl]phenyl}-1,2-oxazol-5-yl)-5-fluoro-6-(2-methoxyethoxy)-1H-indazole] | 19 | 1.1 |  | 
COCCOc1cc2[nH]nc(-c3cc(-c4ccc(C(=O)N5CCC[C@H]5C(C)(C)O)cc4)no3)c2cc1F [A5, 2-[(2S)-1-(4-{5-[5-fluoro-6-(2-methoxyethoxy)-1H-indazol-3-yl]-1,2-oxazol-3-yl}benzoyl)pyrrolidin-2-yl]propan-2-ol] | 20 | 0.55 |  | 
COCCOc1cc2[nH]nc(-c3cc(-c4ccc(C(=O)N5CC(F)C5)cn4)no3)c2cc1F [A81, 5-fluoro-3-{3-[5-(3-fluoroazetidine-1-carbonyl)pyridin-2-yl]-1,2-oxazol-5-yl}-6-(2-methoxyethoxy)-1H-indazole] | 210 | 6 |  | 
COCCOc1cc2[nH]nc(-c3cc(-c4ccc(C(=O)N5CC6(COC6)C5)cc4)no3)c2cc1F [A74, 5-fluoro-6-(2-methoxyethoxy)-3-[3-(4-{2-oxa-6-azaspiro[3.3]heptane-6-carbonyl}phenyl)-1,2-oxazol-5-yl]-1H-indazole] | 52 | 1.3 |  | 
COCCOc1cc2[nH]nc(-c3cc(-c4ccc(C(=O)N5CCOC[C@H]5COC)cc4)no3)c2cc1F [A111, 5-fluoro-6-(2-methoxyethoxy)-3-(3-{4-[(3R)-3-(methoxymethyl)morpholine-4-carbonyl]phenyl}-1,2-oxazol-5-yl)-1H-indazole] | 62 | 1.2 |  | 
COCCOc1cc2[nH]nc(-c3cc(-c4ccc(C(=O)N5CCC[C@@H]5CO)cc4)no3)c2cc1F [A52, [(2R)-1-(4-{5-[5-fluoro-6-(2-methoxyethoxy)-1H-indazol-3-yl]-1,2-oxazol-3-yl}benzoyl)pyrrolidin-2-yl]methanol] | 55 | 0.82 |  | 
COCCOc1cc2[nH]nc(-c3cc(-c4ccc(C(=O)N=S(C)(C)=O)cc4)no3)c2cc1F [A35, N-[dimethyl(oxo)-lambda6-sulfanylidene]-4-{5-[5-fluoro-6-(2-methoxyethoxy)-1H-indazol-3-yl]-1,2-oxazol-3-yl}benzamide] | 170 | 6.3 |  | 
COCCOc1cc2[nH]nc(-c3cc(-c4ccc(N5CC(N6CCOCC6)C5)nc4)no3)c2cc1F [A145, 5-fluoro-6-(2-methoxyethoxy)-3-(3-{6-[3-(morpholin-4-yl)azetidin-1-yl]pyridin-3-yl}-1,2-oxazol-5-yl)-1H-indazole] | 1100 | 4.8 |  | 
COCCOc1cc2[nH]nc(-c3cn(-c4ccc(C(=O)N5CC(N6CCOCC6)C5)c(F)c4)nn3)c2cc1F [reference compound] |  |  | 700 | 20
COCCOc1cc2[nH]nc(-c3cc(-c4ccc(N5CC[C@@H]6[C@@H]5CCN6C)cc4)no3)c2cc1F (relative stereo) [A126, 3-(3-{4-[(trans)-4-methyl-octahydropyrrolo[3,2-b]pyrrol-1-yl]phenyl}-1,2-oxazol-5-yl)-5-fluoro-6-(2-methoxyethoxy)-1H-indazole] | 200 | 1.7 |  | 

More lines, now with the values ahead:

IC50 [1, 2] [nM] | IC50 (c-Kit(V654A); Table 1, 200 μM ATP) [nM] | IC50 [1, 3] [nM] | IC50 (c-Kit(V654A); [3]) [nM] | Compound
460 | 0.99 |  |  | COCCOc1cc2[nH]nc(-c3cc(-c4ccc(C(=O)N5CCS(=N)(=O)CC5)cc4)no3)c2cc1F [A80, 4-(4-{5-[5-fluoro-6-(2-methoxyethoxy)-1H-indazol-3-yl]-1,2-oxazol-3-yl}benzoyl)-1-imino-1lambda6-thiomorpholin-1-one]
 |  | 160 | 2.6 | COCCOc1cc2[nH]nc(-c3cn(-c4ccc(C(=O)N5CC(c6ccncc6)C5)cc4)nn3)c2cc1F [reference compound]
100 | 3.6 |  |  | COc1cc2[nH]nc(-c3cc(-c4ccc(C(=O)N5CCC[C@H]5CS(C)(=O)=O)cc4)no3)c2cc1F [A117, 5-fluoro-3-(3-{4-[(2S)-2-(methanesulfonylmethyl)pyrrolidine-1-carbonyl]phenyl}-1,2-oxazol-5-yl)-6-methoxy-1H-indazole]
170 | 3 |  |  | COCCOc1cc2[nH]nc(-c3cc(-c4ccc(S(=O)(=O)N5CCOCC5)cc4)no3)c2cc1F [A227, 5-fluoro-6-(2-methoxyethoxy)-3-{3-[4-(morpholine-4-sulfonyl)phenyl]-1,2-oxazol-5-yl}-1H-indazole]
35 | 1.1 |  |  | COCCOc1cc2[nH]nc(-c3cc(-c4ccc(C(=O)N(C)C5CC5)cc4)no3)c2cc1F [A31, N-cyclopropyl-4-{5-[5-fluoro-6-(2-methoxyethoxy)-1H-indazol-3-yl]-1,2-oxazol-3-yl}-N-methylbenzamide]
250 | 1.1 |  |  | O=C(c1ccc(-c2cc(-c3n[nH]c4cc(OCCO)c(F)cc34)on2)cc1)N1CCNCC1 [A224, 2-[(5-fluoro-3-{3-[4-(piperazine-1-carbonyl)phenyl]-1,2-oxazol-5-yl}-1H-indazol-6-yl)oxy]ethan-1-ol]
28 | 0.44 |  |  | COCCOc1cc2[nH]nc(-c3cc(-c4ccc(C(=O)N5CCC6(CC5)COC6)cc4)no3)c2cc1F [A60, 7-(4-{5-[5-fluoro-6-(2-methoxyethoxy)-1H-indazol-3-yl]-1,2-oxazol-3-yl}benzoyl)-2-oxa-7-azaspiro[3.5]nonane]
280 | 20 |  |  | Cn1cc(-c2ccc3c(-c4cc(-c5ccc(C(=O)N6CCC[C@@H]6C(C)(C)O)cc5)no4)n[nH]c3c2)cn1 [A8, 2-[(2R)-1-(4-{5-[6-(1-methyl-1H-pyrazol-4-yl)-1H-indazol-3-yl]-1,2-oxazol-3-yl}benzoyl)pyrrolidin-2-yl]propan-2-ol]
43 | 0.86 |  |  | COCCOc1cc2[nH]nc(-c3cc(-c4ccc(C(=O)N5CCN(C6CCOC6)CC5)cc4)no3)c2cc1F (stereo not shown) [A175, 5-fluoro-6-(2-methoxyethoxy)-3-(3-{4-[4-(oxolan-3-yl)piperazine-1-carbonyl]phenyl}-1,2-oxazol-5-yl)-1H-indazole]
450 | 5.6 |  |  | COCCOc1cc2[nH]nc(-c3cc(-c4ccc(C(=O)N5CCC[C@@H]5CO)nc4)no3)c2cc1F [A62, (5-{5-[5-fluoro-6-(2-methoxy-ethoxy)-1H-indazol-3-yl]-isoxazol-3-yl}-pyridin-2-yl)-((R)-2-hydroxymethyl-pyrrolidin-1-yl)-methanone]
40 | 1 |  |  | COCCOc1cc2[nH]nc(-c3cc(-c4ccc(C(=O)N5CC(C)(N(C)C)C5)cc4)no3)c2cc1F [A181, 1-(4-{5-[5-fluoro-6-(2-methoxyethoxy)-1H-indazol-3-yl]-1,2-oxazol-3-yl}benzoyl)-N,N,3-trimethylazetidin-3-amine]
 |  | 320 | 6.1 | COCCOc1ccc2c(-c3cn(-c4ccc(C(=O)N5CCN(C)C[C@@H]5C)cc4)nn3)n[nH]c2c1 [reference compound]
48 | 1.9 |  |  | COCCOc1cc2[nH]nc(-c3cc(-c4ccc(C(=O)N5CCO[C@@H](C)C5)cc4)no3)c2cc1F [A189, 5-fluoro-6-(2-methoxyethoxy)-3-(3-{4-[(2S)-2-methylmorpholine-4-carbonyl]phenyl}-1,2-oxazol-5-yl)-1H-indazole]
